This experiment deals with Programmed cell death 1 ligand/protein 1 (Homo sapiens, UniProt Q9NZQ7+Q15116). The experiment in a line: Inhibition of human PD-1/PD-L1 interaction in CHO-K1 cells transfected with PD-1-YFP/SHP-2-CFP and measured by FRET assay.

The structures appear in SMILES notation.

Sequence of Programmed cell death 1 ligand/protein 1 (Q9NZQ7 whole entry): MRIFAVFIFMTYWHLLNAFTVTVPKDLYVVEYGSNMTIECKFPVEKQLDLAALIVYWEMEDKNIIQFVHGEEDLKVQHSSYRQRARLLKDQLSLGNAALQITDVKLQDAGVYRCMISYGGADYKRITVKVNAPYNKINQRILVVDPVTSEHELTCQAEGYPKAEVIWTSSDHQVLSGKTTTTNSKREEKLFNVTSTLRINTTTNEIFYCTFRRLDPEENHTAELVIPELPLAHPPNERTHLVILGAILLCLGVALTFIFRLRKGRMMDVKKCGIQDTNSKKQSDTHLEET
Sequence of Programmed cell death 1 ligand/protein 1 (Q15116 whole entry): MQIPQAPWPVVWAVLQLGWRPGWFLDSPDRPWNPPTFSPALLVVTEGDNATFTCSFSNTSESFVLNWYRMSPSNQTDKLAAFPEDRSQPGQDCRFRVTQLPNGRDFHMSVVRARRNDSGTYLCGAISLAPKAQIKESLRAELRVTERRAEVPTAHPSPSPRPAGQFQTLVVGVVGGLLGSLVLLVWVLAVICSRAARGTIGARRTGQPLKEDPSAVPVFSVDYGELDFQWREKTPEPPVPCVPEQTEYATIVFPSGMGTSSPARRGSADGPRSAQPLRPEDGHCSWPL

By IC50 is commonly meant the concentration that gives 50% inhibition. Read a high IC50 as weaker potency in that assay. The molecule `COc1ccc(C2=NN(c3ccccn3)C(=O)C2)cc1` gave an IC50 of 0.017 µM. This counts as double-digit nanomolar.

`COc1ccccc1C1=NN(c2ccccn2)C(=O)C1` had an IC50 of 0.007 µM.

Source of the values: BindingDB's records for PubMed 35429911 (Univ. Lille, 2022).
